Measurements taken from US20230365592A1 (Agios Pharmaceuticals, Inc., priority 2022, published 2023).

Biological target: T1, human PAH with the R408W mutation (Homo sapiens, UniProt P00439, R408W)
T1 construct: expressed in transfected cells
T1 sequence (P00439 1-452 R408W): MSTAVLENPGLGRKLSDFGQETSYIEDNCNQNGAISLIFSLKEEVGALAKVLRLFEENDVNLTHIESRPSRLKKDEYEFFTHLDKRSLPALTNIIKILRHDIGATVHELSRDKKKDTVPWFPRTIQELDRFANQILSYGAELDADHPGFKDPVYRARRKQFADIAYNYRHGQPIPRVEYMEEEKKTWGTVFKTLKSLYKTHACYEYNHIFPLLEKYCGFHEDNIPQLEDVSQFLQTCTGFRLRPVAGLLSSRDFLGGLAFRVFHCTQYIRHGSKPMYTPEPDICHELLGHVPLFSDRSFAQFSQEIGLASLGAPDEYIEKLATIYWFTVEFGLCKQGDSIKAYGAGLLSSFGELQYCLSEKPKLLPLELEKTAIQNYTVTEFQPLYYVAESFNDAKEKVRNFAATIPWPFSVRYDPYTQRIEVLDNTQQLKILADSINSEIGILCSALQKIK
Experiment: Cell Based Phenylalanine Flux Assay;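 also: after compound treatment, cells received sepiapterin plus isotope-labelled Phenylalanine for 4 hours, then labelled Tyrosine in the medium was quantified, 10-point 2-fold dilution series run in duplicate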
Details: A375 cells expressing human R408W PAH; 24 hrs compound incubation; 13C-Tyrosine by LC-MS; average where tested multiple times; read-out: AC50

SMILES | AC50 [nM]
CC(C)(C)c1nnc(C(=O)N2CCc3[nH]cnc3[C@@H]2c2cc3c(C(F)F)cccn3n2)o1 [Example 1408, (R)-(5-(tert-butyl)-1,3,4-oxadiazol-2-yl)(4-(4-(difluoromethyl)pyrazolo[1,5-a]pyridin-2-yl)-6,7-dihydro-1H-imidazo[4,5-c]pyridin-5(4H)-yl)methanone] | 1000 to 5000
CC(C)(C)c1nnc(C(=O)N2CCc3[nH]cnc3[C@H]2c2cc3c(C(F)F)cccn3n2)o1 [Example 1409, (S)-(5-(tert-butyl)-1,3,4-oxadiazol-2-yl)(4-(4-(difluoromethyl)pyrazolo[1,5-a]pyridin-2-yl)-6,7-dihydro-1H-imidazo[4,5-c]pyridin-5(4H)-yl)methanone] | < 500
O=C(c1nnc(-c2ncccn2)o1)N1CCc2[nH]cnc2[C@@H]1c1cc2c(Cl)cccn2n1 [Example 1410, (R)-(4-(4-chloropyrazolo[1,5-a]pyridin-2-yl)-6,7-dihydro-1H-imidazo[4,5-c]pyridin-5(4H)-yl)(5-(pyrimidin-2-yl)-1,3,4-oxadiazol-2-yl)methanone] | 1000 to 5000
O=C(c1nnc(-c2ncccn2)o1)N1CCc2[nH]cnc2[C@H]1c1cc2c(Cl)cccn2n1 [Example 1411, (S)-(4-(4-chloropyrazolo[1,5-a]pyridin-2-yl)-6,7-dihydro-1H-imidazo[4,5-c]pyridin-5(4H)-yl)(5-(pyrimidin-2-yl)-1,3,4-oxadiazol-2-yl)methanone] | < 500
O=C(c1nnc(-c2ncccn2)o1)N1CCc2[nH]cnc2[C@H]1c1cc2c(C(F)F)cccn2n1 [Example 1413, (S)-(4-(4-(difluoromethyl)pyrazolo[1,5-a]pyridin-2-yl)-6,7-dihydro-1H-imidazo[4,5-c]pyridin-5(4H)-yl)(5-(pyrimidin-2-yl)-1,3,4-oxadiazol-2-yl)methanone] | 500 to 1000
O=C(c1cnn2cc(-c3ccccn3)ccc12)N1CCc2[nH]cnc2[C@@H]1c1cc2ccccn2n1 [Example 1417, (R)-(4-(pyrazolo[1,5-a]pyridin-2-yl)-6,7-dihydro-1H-imidazo[4,5-c]pyridin-5(4H)-yl)(6-(pyridin-2-yl)pyrazolo[1,5-a]pyridin-3-yl)methanone] | 1000 to 5000
COc1ccc(-c2nnc(C(=O)N3CCc4[nH]cnc4[C@@H]3c3cc4c(C(F)F)cccn4n3)o2)nc1 [Example 1425, (R)-(4-(4-(difluoromethyl)pyrazolo[1,5-a]pyridin-2-yl)-6,7-dihydro-1H-imidazo[4,5-c]pyridin-5(4H)-yl)(5-(5-methoxypyridin-2-yl)-1,3,4-oxadiazol-2-yl)methanone] | 1000 to 5000
O=C(c1nnc(-c2ncccc2F)o1)N1CCc2[nH]cnc2[C@H]1c1cc2c(C(F)F)cccn2n1 [Example 1426, (S)-(4-(4-(difluoromethyl)pyrazolo[1,5-a]pyridin-2-yl)-6,7-dihydro-1H-imidazo[4,5-c]pyridin-5(4H)-yl)(5-(3-fluoropyridin-2-yl)-1,3,4-oxadiazol-2-yl)methanone] | < 500
O=C(c1nnc(-c2ncccc2F)o1)N1CCc2[nH]cnc2[C@@H]1c1cc2c(C(F)F)cccn2n1 [Example 1427, (R)-(4-(4-(difluoromethyl)pyrazolo[1,5-a]pyridin-2-yl)-6,7-dihydro-1H-imidazo[4,5-c]pyridin-5(4H)-yl)(5-(3-fluoropyridin-2-yl)-1,3,4-oxadiazol-2-yl)methanone] | > 5000
Cc1cccc(-c2nnc(C(=O)N3CCc4[nH]cnc4[C@@H]3c3cc4c(Cl)cccn4n3)o2)n1 [Example 1430, (R)-(4-(4-chloropyrazolo[1,5-a]pyridin-2-yl)-6,7-dihydro-1H-imidazo[4,5-c]pyridin-5(4H)-yl)(5-(6-methylpyridin-2-yl)-1,3,4-oxadiazol-2-yl)methanone] | > 5000
Cc1cccc(-c2nnc(C(=O)N3CCc4[nH]cnc4[C@@H]3c3cc4c(C(F)(F)F)cccn4n3)o2)n1 [Example 1432, (R)-(5-(6-methylpyridin-2-yl)-1,3,4-oxadiazol-2-yl)(4-(4-(trifluoromethyl)pyrazolo[1,5-a]pyridin-2-yl)-6,7-dihydro-1H-imidazo[4,5-c]pyridin-5(4H)-yl)methanone] | 1000 to 5000
CC(C)c1nnc(C(=O)N2CCc3[nH]cnc3[C@H]2c2cc3ccccn3n2)o1 [Example 1448, (S)-(5-isopropyl-1,3,4-oxadiazol-2-yl)(4-(pyrazolo[1,5-a]pyridin-2-yl)-6,7-dihydro-1H-imidazo[4,5-c]pyridin-5(4H)-yl)methanone] | 500 to 1000
CC(C)c1nnc(C(=O)N2CCc3[nH]cnc3[C@@H]2c2cc3ccccn3n2)o1 [Example 1449, (R)-(5-isopropyl-1,3,4-oxadiazol-2-yl)(4-(pyrazolo(1,5-a]pyridin-2-yl)-6,7-dihydro-1H-imidazo[4,5-c]pyridin-5(4H)-yl)methanone] | 1000 to 5000
Cc1cccn2nc([C@@H]3c4nc[nH]c4CCN3C(=O)c3nnc(C(C)C)o3)cc12 [Example 1450, (S)-(5-isopropyl-1,3,4-oxadiazol-2-yl)(4-(4-methylpyrazolo[1,5-a]pyridin-2-yl)-6,7-dihydro-1H-imidazo[4,5-c]pyridin-5(4H)-yl)methanone] | < 500

Now from value to compound:

AC50 [nM] | SMILES
> 5000 | Cn1cc(-c2nnc(C(=O)N3CCc4[nH]cnc4[C@@H]3c3cc4cccc(C(F)F)n4n3)o2)cn1 [Example 1407, (R)-(4-(7-(difluoromethyl)pyrazolo[1,5-a]pyridin-2-yl)-6,7-dihydro-1H-imidazo[4,5-c]pyridin-5(4H)-yl)(5-(1-methyl-1H-pyrazol-4-yl)-1,3,4-oxadiazol-2-yl)methanone]
1000 to 5000 | CC(C)(C)c1nnc(C(=O)N2CCc3[nH]cnc3[C@@H]2c2cc3cccc(C(F)F)n3n2)o1 [Example 1418, (R)-(5-(tert-butyl)-1,3,4-oxadiazol-2-yl)(4-(7-(difluoromethyl)pyrazolo[1,5-a]pyridin-2-yl)-6,7-dihydro-1H-imidazo[4,5-c]pyridin-5(4H)-yl)methanone]
< 500 | O=C(c1nnc(-c2ccccn2)o1)N1CCc2[nH]cnc2[C@H]1c1cc2cccc(C(F)F)n2n1 [Example 1421, (S)-(4-(7-(difluoromethyl)pyrazolo[1,5-a]pyridin-2-yl)-6,7-dihydro-1H-imidazo[4,5-c]pyridin-5(4H)-yl)(5-(pyridin-2-yl)-1,3,4-oxadiazol-2-yl)methanone]
< 500 | O=C(c1nnc(-c2cccnc2)o1)N1CCc2[nH]cnc2[C@H]1c1cc2c(C(F)F)cccn2n1 [Example 1422, (S)-(4-(4-(difluoromethyl)pyrazolo[1,5-a]pyridin-2-yl)-6,7-dihydro-1H-imidazo[4,5-c]pyridin-5(4H)-yl)(5-(pyridin-3-yl)-1,3,4-oxadiazol-2-yl)methanone]
500 to 1000 | Cn1ccc(-c2nnc(C(=O)N3CCc4[nH]cnc4[C@H]3c3cc4cccc(C(F)F)n4n3)o2)n1 [Example 1438, (S)-(4-(7-(difluoromethyl)pyrazolo[1,5-a]pyridin-2-yl)-6,7-dihydro-1H-imidazo[4,5-c]pyridin-5(4H)-yl)(5-(1-methyl-1H-pyrazol-3-yl)-1,3,4-oxadiazol-2-yl)methanone]
> 5000 | Cn1ccc(-c2nnc(C(=O)N3CCc4[nH]cnc4[C@@H]3c3cc4cccc(C(F)F)n4n3)o2)n1 [Example 1439, (R)-(4-(7-(difluoromethyl)pyrazolo[1,5-a]pyridin-2-yl)-6,7-dihydro-1H-imidazo[4,5-c]pyridin-5(4H)-yl)(5-(1-methyl-1H-pyrazol-3-yl)-1,3,4-oxadiazol-2-yl)methanone]
500 to 1000 | O=C(c1nnc(-c2cnn(C(F)F)c2)o1)N1CCc2[nH]cnc2[C@H]1c1cc2cccc(C(F)F)n2n1 [Example 1440, (S)-(5-(1-(difluoromethyl)-1H-pyrazol-4-yl)-1,3,4-oxadiazol-2-yl)(4-(7-(difluoromethyl)pyrazolo[1,5-a]pyridin-2-yl)-6,7-dihydro-1H-imidazo[4,5-c]pyridin-5(4H)-yl)methanone]
> 5000 | O=C(c1nnc(-c2cnn(C(F)F)c2)o1)N1CCc2[nH]cnc2[C@@H]1c1cc2cccc(C(F)F)n2n1 [Example 1441, (R)-(5-(1-(difluoromethyl)-1H-pyrazol-4-yl)-1,3,4-oxadiazol-2-yl)(4-(7-(difluoromethyl)pyrazolo[1,5-a]pyridin-2-yl)-6,7-dihydro-1H-imidazo[4,5-c]pyridin-5(4H)-yl)methanone]
< 500 | O=C(c1nnc(-c2ccn(C(F)F)n2)o1)N1CCc2[nH]cnc2[C@H]1c1cc2cccc(C(F)F)n2n1 [Example 1442, (S)-(5-(1-(difluoromethyl)-1H-pyrazol-3-yl)-1,3,4-oxadiazol-2-yl)(4-(7-(difluoromethyl)pyrazolo[1,5-a]pyridin-2-yl)-6,7-dihydro-1H-imidazo[4,5-c]pyridin-5(4H)-yl)methanone]
< 500 | O=C(c1nnc(-c2cnn(C(F)(F)F)c2)o1)N1CCc2[nH]cnc2[C@H]1c1cc2cccc(Cl)n2n1 [Example 1444, (S)-(4-(7-chloropyrazolo[1,5-a]pyridin-2-yl)-6,7-dihydro-1H-imidazo[4,5-c]pyridin-5(4H)-yl)(5-(1-(trifluoromethyl)–1H-pyrazol-4-yl)-1,3,4-oxadiazol-2-yl)methanone]
> 5000 | Cc1cccc2cc([C@H]3c4nc[nH]c4CCN3C(=O)c3nnc(-c4cnn(C(F)(F)F)c4)o3)nn12 [Example 1447, (R)-(4-(7-methylpyrazolo[1,5-a]pyridin-2-yl)-6,7-dihydro-1H-imidazo[4,5-c]pyridin-5(4H)-yl)(5-(1-(trifluoromethyl)-1H-pyrazol-4-yl)-1,3,4-oxadiazol-2-yl)methanone]
